Key:
[1] = tested on: RBL-2H3 cells; test: Fluorescence-based assay of store-operated calcium entry in RBL-2H3 cells; type: cell-based; details: Rattus norvegicus, store-operated calcium entry after thapsigargin, Fluo-4, 50% inhibition of Upslope
Experimental: B. Fluorescence-based Assay of Store-Operated Calcium Entry in RBL-2H3 Cells. Cells:
RBL-2H3 cells are obtained from ATCC and maintained in complete medium with 10% FBS at 37° C./6% CO2.
The day prior to performing the assay, RBL-2H3 cells are plated in 50 μL of complete medium in a 384 well plate. Cells are grown at 37° C./6% CO2 overnight and grow to 50-60% confluence by the next day. On the assay day, 1.5 μM Fluo-4-AM dye (Invitrogen) in complete medium is added and incubated for 1 hour at RT. Cells are washed twice in Ca^2+-free HBSS buffer and 35 μL Ca^2+-free HBSS buffer is added to each well. 10 μL of a test compound prepared in a Ca^2+-free HBSS solution at 4.5× of the desired concentration is added to a well and incubated for 5 minutes at RT. 10 μL of thapsigargin prepared in a Ca^2+-free HBSS solution at 5.5× of the desired concentration (5.5 uM) is added to each well and incubated for an additional 25 minutes. The initial baseline fluorescence signal is measured with a FLIPR^384 (Molecular Devices) plate reader. 5 μL of 12× calcium in HBSS (12 mM) is added and changes in cellular fluorescence are measured with the FLIPR^384 plate reader. In each well, the change in the fluorescent signal as a function of time due to calcium entry into the cell is determined by calculating the difference between the fluorescent signal measured 7 seconds after calcium addition and the initial baseline fluorescence signal at time zero (t=0). This parameter is designated Upslope. The IC50 value is calculated as the concentration at which 50% of the Upslope is inhibited.

[2] = molecular target: T1, recombinant human STIM1 and Orai1 (HEK-293 cells) (Homo sapiens, UniProt Q96D31); test: Fluorescence-based assay of store-operated calcium entry in Orai1/STIM1 stable cells; type: cell-based; details: fluo-4, 50% inhibition of Peak-Basal signal
T1 construct: expressed in transfected cells; host or cells: HEK-293 cells stably expressing both proteins
T1 sequence (Q96D31 whole entry): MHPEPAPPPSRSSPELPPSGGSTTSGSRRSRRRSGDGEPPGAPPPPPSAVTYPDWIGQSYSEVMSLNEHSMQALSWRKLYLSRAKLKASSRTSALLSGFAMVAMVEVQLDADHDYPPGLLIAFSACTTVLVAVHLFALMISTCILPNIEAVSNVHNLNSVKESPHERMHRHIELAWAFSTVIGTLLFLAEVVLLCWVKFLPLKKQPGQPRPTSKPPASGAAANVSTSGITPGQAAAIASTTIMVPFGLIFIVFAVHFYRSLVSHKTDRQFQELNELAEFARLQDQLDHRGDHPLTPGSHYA
Experimental: A. Fluorescence-based Assay of Store-Operated Calcium Entry in Orai1/STIM1 Stable Cells.
Cells stably expressing recombinant human STIM1 and Orai1 are generated by transfecting a human Orai1 expression plasmid (pcDNA3.1-Orai1-cmyc) into HEK-293 cells stably overexpressing human STIM1 (Roos et al. 2005 JCB 169(3): 435-445). Colonies of cells stably expressing both STIM1 and Orai1 proteins are selected and then subcloned by limiting dilution. Cells were cultured at 37° C./6% CO2 in complete medium with 10% FBS and appropriate selection markers.
The day prior to performing the assay Orai1/STIM1 stable cells are plated in 50 μL of complete medium at 90-95% confluence in a 384 well plate. Cells are grown at 37° C./6% CO2 overnight. On the day of the assay, 1.5 μM fluo-4-AM (Invitrogen) in complete medium is added to the cells, which are then incubated for 1 hour at RT. Cells are washed once in Ca^2+-free HBSS (Hank's buffered saline solution) and 35 μl of Ca^2+-free HBSS is added to each well. Test compounds are added to wells in a 10 μL Ca^2+-free HBSS solution, prepared at 4.5× the desired final concentration, and incubated for 30 minutes at RT. The initial baseline fluorescence signal is then measured with a FLIPR^384 (Molecular Devices) plate reader. Calcium entry is initiated by adding 5 μl of 10×CaCl2 (10 mM) in HBSS, and changes in cellular fluorescence are measured with the FLIPR^384 plate reader. In each well, the magnitude of the fluorescence signal as a result of calcium entry into the cell is determined by calculating the difference between the peak fluorescence signal measured after calcium addition and the initial baseline fluorescence signal (designated Peak-Basal). IC50 values are typically calculated as the concentration that inhibited 50% of the Peak-Basal signal.

| IC50 [1] [nM] | IC50 [2] [nM] | Compound |
| --- | --- | --- |
| > 1200 | 600 to 1200 | Cc1cc2c(cc1-c1ccc(NCc3c(F)cccc3F)s1)OC(F)(F)O2 [Compound 36, 5-(2,2-difluoro-6-methylbenzo[d][1,3]dioxol-5-yl)-N-(2,6-difluorobenzyl)thiophen-2-amine] |
| < 600 | 600 to 1200 | Cc1cc2c(cc1-c1cnc(NCc3c(F)cncc3F)s1)OC(F)(F)O2 [Compound 14, 5-(2,2-difluoro-6-methylbenzo[d][1,3]dioxol-5-yl)-N-((3,5-difluoropyridin-4-yl)methyl)thiazol-2-amine] |
| < 600 | < 600 | Cc1cc2c(cc1-c1cnc(OCc3c(F)cccc3F)s1)OC(F)(F)O2 [Compound 31] |
| < 600 | < 600 | Cn1nc(C(F)(F)F)cc1-c1cnc(NCc2ccccc2F)s1 [Compound 4, N-(2-fluorobenzyl)-5-(1-methyl-3-(trifluoromethyl)-1H-pyrazol-5-yl)thiazol-2-amine] |
| < 600 | < 600 | Cn1nc(C(F)(F)F)cc1-c1cnc(OCc2c(F)cccc2F)s1 [Compound 32, 2-[(2,6-difluorophenyl)methoxy]-5-[1-methyl-3-(trifluoromethyl)pyrazol-5-yl]-1,3-thiazole] |
| < 600 | 600 to 1200 | Cn1nc(C(F)(F)F)cc1-c1cnc(NCc2c(F)cccc2F)s1 [Compound 2, N-(2,6-difluorobenzyl)-5-(1-methyl-3-(trifluoromethyl)-1H-pyrazol-5-yl)thiazol-2-amine] |
| 600 to 1200 | > 1200 | Cn1nc(C(F)(F)F)cc1-c1cnc(NCc2c(F)cncc2F)s1 [Compound 11, N-((3,5-difluoropyridin-4-yl)methyl)-5-(1-methyl-3-(trifluoromethyl)-1H-pyrazol-5-yl)thiazol-2-amine] |
| < 600 | 600 to 1200 | Cn1nc(C(F)(F)F)cc1-c1ccc(NCc2c(F)cccc2F)s1 [Compound 35, N-(2,6-difluorobenzyl)-5-(1-methyl-3-(trifluoromethyl)-1H-pyrazol-5-yl)thiophen-2-amine] |
| 600 to 1200 | > 1200 | Cn1nc(C(F)(F)F)cc1-c1ccc(NCc2ccccc2F)s1 [Compound 34, N-(2-fluorobenzyl)-5-(1-methyl-3-(trifluoromethyl)-1H-pyrazol-5-yl)thiophen-2-amine] |
